Test [1] relates to human venous whole blood (IFN-γ). The test can be described thus: Human whole blood IFN-γ assay. The class given is cell-based. As to the method:
Human venous whole blood (22.5 μL per well), obtained from healthy donors, was pre-treated with compounds for one hour at 37° C. in a humidified 95% air/5% CO2 incubator. The blood was stimulated with 2.5 μL anti-human CD3 and anti-CD28 mAb at a final concentration of 1 μg/mL each for 24 hours at 37° C. IFN-γ in the supernatants was measured using AlphLISA kit (Cat #AL217).

The target of the next test is human DGKα (Homo sapiens (Human), UniProt P23743). The experiment in a line: DGKα ADPGLO assay (detergent/lipid micelle substrate). The class given is biochemical. As to the method:
DGK Alpha ADPGLO (Truncated) IC50 (uM)
The detergent/lipid micelle was prepared by combining 15 g phosphatidylserine (Avanti 840035P) and 1 g diacylglycerol (8008110) and dissolving into 150 mL chloroform in a 2 L round bottom flask. Chloroform was removed under high vacuum by rotary evaporation. […] The lipid/detergent solution was split into 5 mL aliquots and stored at −80° C.

The target of another test is human DGKζ (Homo sapiens (Human), UniProt Q13574). The test can be described thus: DGKζ LIPGLO assay (extruded liposome substrate, ADP-Glo luminescence). The test is classed as biochemical.
[2] abbreviates: human whole blood, anti-CD3 plus anti-CD28 stimulation, 24 hours, read-out: IFN-γ Whole Blood EC50.
[3] abbreviates: ADPGLO assay, read-out: DGK alpha ADPGLO IC50.
Setting [4] is: liposome (LIPGLO) assay, read-out: DGK zeta (liposome assay) IC50.
Setting [5] is: whole blood, normalized to 3 μM reference compound as 100% activation, read-out: IFN-γ Whole Blood Normalized EC50.
Setting [6] is: truncated DGK alpha, read-out: DGK alpha ADPGLO (Truncated) IC50.
Setting [7] is: liposome assay, read-out: DGK zeta LIPGLO IC50.

Where two headings read alike, the source gives them in different places.

Sequence of human DGKζ (Q13574 other isoform, or with tags, fused parts or gaps): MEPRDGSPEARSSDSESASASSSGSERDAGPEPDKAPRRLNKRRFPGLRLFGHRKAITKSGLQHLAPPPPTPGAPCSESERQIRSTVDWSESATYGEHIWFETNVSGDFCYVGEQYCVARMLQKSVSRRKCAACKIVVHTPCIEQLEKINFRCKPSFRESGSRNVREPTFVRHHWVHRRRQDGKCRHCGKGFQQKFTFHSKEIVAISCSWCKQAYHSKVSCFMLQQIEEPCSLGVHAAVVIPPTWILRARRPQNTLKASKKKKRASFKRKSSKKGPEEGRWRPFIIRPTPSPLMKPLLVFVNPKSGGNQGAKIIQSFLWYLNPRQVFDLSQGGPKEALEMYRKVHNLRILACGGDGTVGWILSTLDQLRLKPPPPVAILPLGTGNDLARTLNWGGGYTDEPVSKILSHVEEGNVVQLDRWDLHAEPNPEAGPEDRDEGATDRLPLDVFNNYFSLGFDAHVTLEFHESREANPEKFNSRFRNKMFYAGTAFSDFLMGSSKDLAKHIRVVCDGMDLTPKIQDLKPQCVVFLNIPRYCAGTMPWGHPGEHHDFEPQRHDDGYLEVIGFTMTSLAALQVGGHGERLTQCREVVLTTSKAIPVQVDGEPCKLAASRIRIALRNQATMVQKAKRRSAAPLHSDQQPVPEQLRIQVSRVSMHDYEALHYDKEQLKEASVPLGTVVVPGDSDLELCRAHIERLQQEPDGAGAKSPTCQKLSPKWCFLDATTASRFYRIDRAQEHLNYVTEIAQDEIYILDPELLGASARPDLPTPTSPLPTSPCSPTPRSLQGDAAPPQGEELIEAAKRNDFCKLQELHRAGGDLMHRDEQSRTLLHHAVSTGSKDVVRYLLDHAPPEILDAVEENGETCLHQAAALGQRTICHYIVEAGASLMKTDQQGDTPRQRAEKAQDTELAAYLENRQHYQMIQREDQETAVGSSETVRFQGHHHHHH
Sequence of human DGKα (P23743 whole entry, looked up, the tested form may be a part): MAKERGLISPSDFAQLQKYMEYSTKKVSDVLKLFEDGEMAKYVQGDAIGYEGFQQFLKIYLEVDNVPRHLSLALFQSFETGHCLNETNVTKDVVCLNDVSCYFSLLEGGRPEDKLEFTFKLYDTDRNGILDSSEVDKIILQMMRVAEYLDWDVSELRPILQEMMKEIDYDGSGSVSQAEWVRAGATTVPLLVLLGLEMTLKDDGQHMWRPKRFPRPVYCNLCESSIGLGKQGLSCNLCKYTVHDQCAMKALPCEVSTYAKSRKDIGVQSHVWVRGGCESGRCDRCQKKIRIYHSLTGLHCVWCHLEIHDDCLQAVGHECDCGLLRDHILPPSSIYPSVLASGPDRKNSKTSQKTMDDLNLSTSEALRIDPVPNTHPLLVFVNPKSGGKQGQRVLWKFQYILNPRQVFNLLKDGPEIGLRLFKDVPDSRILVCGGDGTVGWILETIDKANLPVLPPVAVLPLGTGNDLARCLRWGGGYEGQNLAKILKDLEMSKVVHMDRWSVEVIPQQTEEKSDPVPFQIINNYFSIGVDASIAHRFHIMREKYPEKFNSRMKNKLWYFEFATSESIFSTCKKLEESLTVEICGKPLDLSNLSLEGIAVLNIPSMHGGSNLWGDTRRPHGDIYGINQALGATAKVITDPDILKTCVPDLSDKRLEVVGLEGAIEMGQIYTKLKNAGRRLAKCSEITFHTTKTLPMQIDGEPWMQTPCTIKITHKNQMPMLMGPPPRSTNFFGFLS

Consider `CC[C@H]1CN(C(c2ccc(F)cc2)c2noc(C3CC3)n2)[C@H](CC)CN1c1nc(=O)n(C)c2ccc(C#N)nc12` (single isomer, unassigned) [Example 372], for which, in test [1] (setting [2]), the EC50 turned out to be 150 nM. Besides, the IC50 on human DGKα (setting [3]) was determined as 4 nM; on human DGKζ (setting [4]), 43 nM.
In the case of `CCC(c1ccc(OCC2CC2)cc1F)N1C[C@H](CC)N(c2nc(=O)n(C)c3ccc(C#N)nc23)C[C@H]1CC` (stereo partly drawn) [Example 198, 4-((2S,5R)-4-(1-(4-(cyclopropylmethoxy)-2-fluorophenyl)propyl)-2,5-diethylpiperazin-1-yl)-1-methyl-2-oxo-1,2-dihydropyrido[3,2-d]pyrimidine-6-carbonitrile], the EC50 in test [1] (setting [5]) was determined as 15 nM. In addition, the half-inhibitory concentration (IC50) was found to be 37 nM on human DGKα (setting [6]) and 38 nM on human DGKζ (setting [7]).
The matching figures for `CC[C@H]1CN(C(C)c2ccc(CN3CCN(C(C)=O)CC3)cc2)[C@H](CC)CN1c1nc(=O)n(C)c2ccc(C#N)nc12` (stereo partly drawn) [Example 284, 4-((2S,5R)-4-(1-(4-((4-acetylpiperazin-1-yl)methyl)phenyl)ethyl)-2,5-diethylpiperazin-1-yl)-1-methyl-2-oxo-1,2-dihydropyrido[3,2-d]pyrimidine-6-carbonitrile]: 13000 nM, 3170 nM and 25100 nM.
The matching figures for `CC[C@H]1CN(C(C)c2ccc(C)nc2)[C@H](CC)CN1c1nc(=O)n(C)c2ccc(C#N)nc12` (stereo partly drawn) [Example 228, 4-((2S,5R)-2,5-diethyl-4-(1-(6-methylpyridin-3-yl)ethyl)piperazin-1-yl)-1-methyl-2-oxo-1,2-dihydropyrido[3,2-d]pyrimidine-6-carbonitrile]: 600 nM, 190 nM and 300 nM.
On to `CCC(c1ccc(C(F)(F)F)nc1)N1C[C@H](CC)N(c2nc(=O)n(C)c3ccc(C#N)nc23)C[C@H]1CC` (stereo partly drawn) [Example 224, 4-((2S,5R)-2,5-diethyl-4-(1-(6-(trifluoromethyl)pyridin-3-yl)propyl)piperazin-1-yl)-1-methyl-2-oxo-1,2-dihydropyrido[3,2-d]pyrimidine-6-carbonitrile], for which, in test [1] (setting [5]), the concentration giving a half-maximal response (EC50) was 120 nM. The values for the IC50 on human DGKα (setting [6]) and on human DGKζ (setting [7]) were 81 nM and 140 nM, respectively.
Regarding `CCC(c1ccc(OCC2CC2)cc1)N1C[C@H](C)N(c2nc(=O)n(C)c3ccc(C#N)nc23)C[C@H]1CC` (stereo partly drawn) [Example 309, 4-((2S,5R)-4-(1-(4-(cyclopropylmethoxy)phenyl)propyl)-5-ethyl-2-methylpiperazin-1-yl)-1-methyl-2-oxo-1,2-dihydropyrido[3,2-d]pyrimidine-6-carbonitrile], the concentration for a half-maximal effect (EC50) in test [1] (setting [2]) was 1480 nM. For the same compound, the IC50 was 350 nM at human DGKα (setting [3]) and 850 nM at human DGKζ (setting [4]).
As for `CCC(c1ccc(OC)cc1)N1C[C@H](CC)N(c2nc(=O)n(C)c3ccc(C#N)nc23)C[C@H]1CC` (stereo partly drawn) [Example 212, 4-((2S,5R)-2,5-diethyl-4-(1-(4-methoxyphenyl)propyl)piperazin-1-yl)-1-methyl-2-oxo-1,2-dihydropyrido[3,2-d]pyrimidine-6-carbonitrile], the concentration for a half-maximal effect (EC50) in test [1] (setting [5]) amounted to 22 nM. For the same compound, the values for the half-maximal inhibitory concentration (IC50) at human DGKα (setting [6]) and on human DGKζ (setting [7]) were 18 nM and 70 nM, respectively.
Turning to `CCC(c1ccc(Cl)cc1F)N1C[C@H](CC)N(c2nc(=O)n(C)c3ccc(C#N)nc23)C[C@H]1CC` (stereo partly drawn) [Example 238, 4-((2S,5R)-4-(1-(4-chloro-2-fluorophenyl)propyl)-2,5-diethylpiperazin-1-yl)-1-methyl-2-oxo-1,2-dihydropyrido[3,2-d]pyrimidine-6-carbonitrile], the EC50 in test [1] (setting [5]) came to 23 nM. Besides, the IC50 on human DGKα (setting [6]) stood at 15 nM; on human DGKζ (setting [7]), 110 nM.
With `CC[C@H]1CN(C(C)c2ccc3oc(=O)n(C)c3c2)[C@H](CC)CN1c1nc(=O)n(C)c2ccc(C#N)nc12` (stereo partly drawn) [Example 203, 4-((2S,5R)-2,5-diethyl-4-(1-(3-methyl-2-oxo-2,3-dihydrobenzo[d]oxazol-5-yl)ethyl)piperazin-1-yl)-1-methyl-2-oxo-1,2-dihydropyrido[3,2-d]pyrimidine-6-carbonitrile], the concentration giving a half-maximal response (EC50) in test [1] (setting [5]) was determined as 2210 nM. The concentration for half-maximal inhibition (IC50) on human DGKα (setting [6]) worked out at 780 nM; at human DGKζ (setting [7]) it was 2710 nM.
For `CC[C@H]1CN(C(C)c2ccc(C)nc2)[C@H](CC)CN1c1nc(=O)n(C)c2ccc(C#N)nc12` (stereo partly drawn) [Example 229, 4-((2S,5R)-2,5-diethyl-4-(1-(6-methylpyridin-3-yl)ethyl)piperazin-1-yl)-1-methyl-2-oxo-1,2-dihydropyrido[3,2-d]pyrimidine-6-carbonitrile] the same measures were 1610 nM, 680 nM and 3560 nM.
As to `CCC(c1ccc(C(F)(F)F)cc1)N1C[C@H](CC)N(c2nc(=O)n(C)c3ccc(Cl)nc23)C[C@H]1CC` (single isomer, unassigned) [Example 421], the half-maximal effective concentration (EC50) in test [1] (Homo sapiens, 24 h, human whole blood, anti-CD3 plus anti-CD28 stimulation, 24 hours, read-out: IFN-γ Whole Blood EC50) worked out at 190 nM. Besides, the 50% inhibitory concentration (IC50) at human DGKα (setting [3]) came out at 64 nM; at human DGKζ (setting [4]), 320 nM.
For the compound `CC[C@H]1CN(C(C)c2cnc(C(F)(F)F)nc2)[C@H](CC)CN1c1nc(=O)n(C)c2ccc(C#N)nc12` (stereo partly drawn) [Example 227, 4-((2S,5R)-2,5-diethyl-4-(1-(2-(trifluoromethyl)pyrimidin-5-yl)ethyl)piperazin-1-yl)-1-methyl-2-oxo-1,2-dihydropyrido[3,2-d]pyrimidine-6-carbonitrile], the concentration for a half-maximal effect (EC50) in test [1] (setting [5]) came out at 640 nM. Moreover, the results for the 50% inhibitory concentration (IC50) at human DGKα (setting [6]) and at human DGKζ (setting [7]) were 2450 nM and 1790 nM, respectively.
For `CCC(c1ccc(C#N)cc1)N1C[C@H](CC)N(c2nc(=O)n(C)c3ccc(C#N)nc23)C[C@H]1CC` (stereo partly drawn) [Example 220, 4-((2S,5R)-4-(1-(4-cyanophenyl)propyl)-2,5-diethylpiperazin-1-yl)-1-methyl-2-oxo-1,2-dihydropyrido[3,2-d] pyrimidine-6-carbonitrile] the same measures were 81 nM, 110 nM and 46 nM.
The matching figures for `CC[C@H]1CN(C(C)c2cnc(N3CCOCC3)nc2)[C@H](CC)CN1c1nc(=O)n(C)c2ccc(C#N)nc12` (stereo partly drawn) [Example 207, 4-((2S,5R)-2,5-diethyl-4-(1-(2-morpholinopyrimidin-5-yl)ethyl)piperazin-1-yl)-1-methyl-2-oxo-1,2-dihydropyrido[3,2-d] pyrimidine-6-carbonitrile]: 1060 nM, 620 nM and 970 nM.
For the compound `CC[C@H]1CN(C(C)c2ccc(CN3CCOC(C)(C)C3)cc2)[C@H](CC)CN1c1nc(=O)n(C)c2ccc(C#N)nc12` (stereo partly drawn) [Example 275, 4-((2S,5R)-4-(1-(4-((2,2-dimethylmorpholino)methyl)phenyl)ethyl)-2,5-diethylpiperazin-1-yl)-1-methyl-2-oxo-1,2-dihydropyrido[3,2-d]pyrimidine-6-carbonitrile], the EC50 in test [1] (setting [5]) stood at 35 nM. Further, the 50% inhibitory concentration (IC50) was found to be 530 nM on human DGKα (setting [6]) and 150 nM at human DGKζ (setting [7]).
On to `CCC(c1ccc(OCC2CC2)cc1)N1C[C@H](CC)N(c2nc(=O)n(C)c3ccc(C#N)nc23)C[C@H]1CC` (stereo partly drawn) [Example 216, 4-((2S,5R)-4-(1-(4-(cyclopropylmethoxy)phenyl)propyl)-2,5-diethylpiperazin-1-yl)-1-methyl-2-oxo-1,2-dihydropyrido[3,2-d]pyrimidine-6-carbonitrile], for which, in test [1] (setting [5]), the EC50 amounted to 12 nM. Also, the half-inhibitory concentration (IC50) on human DGKα (setting [6]) was 87 nM; at human DGKζ (setting [7]) it was 88 nM.
As to `CC[C@@H]1CN(c2nc(=O)n(C)c3ccc(C#N)nc23)[C@@H](C)CN1C(C)c1ccc2oc(=O)n(C)c2c1` (stereo partly drawn) [Example 299, 4-((2S,5R)-5-ethyl-2-methyl-4-(1-(3-methyl-2-oxo-2,3-dihydrobenzo[d]oxazol-5-yl)ethyl)piperazin-1-yl)-1-methyl-2-oxo-1,2-dihydropyrido[3,2-d]pyrimidine-6-carbonitrile], the EC50 in test [1] (setting [5]) is 3460 nM. The concentration for half-maximal inhibition (IC50) at human DGKα (setting [6]) is 1280 nM; at human DGKζ (setting [7]), 4680 nM.
`CCC(c1ccc(C)cc1)N1C[C@H](CC)N(c2nc(=O)n(C)c3ccc(C#N)nc23)C[C@H]1CC` (stereo partly drawn) [Example 237, 4-((2S,5R)-2,5-diethyl-4-(1-(p-tolyl)propyl)piperazin-1-yl)-1-methyl-2-oxo-1,2-dihydropyrido[3,2-d]pyrimidine-6-carbonitrile]: the EC50 in test [1] (setting [5]) worked out at 1430 nM. Besides, the half-inhibitory concentration (IC50) was 53 nM on human DGKα (setting [6]) and 3960 nM at human DGKζ (setting [7]).
On to `CC(c1ccc(CN2CCOC(C)(C)C2)cc1)N1C[C@H](C)N(c2nc(=O)n(C)c3ccc(C#N)nc23)C[C@H]1C` (single isomer, unassigned) [Example 386], for which the EC50 in test [1] (setting [2]) was found to be 2490 nM. For the same compound, the 50% inhibitory concentration (IC50) at human DGKα (setting [3]) was 2700 nM; on human DGKζ (setting [4]), 5070 nM.
In the case of `CC[C@H]1CN(C(C)c2ccc(C3CC3)nc2)[C@H](CC)CN1c1nc(=O)n(C)c2ccc(C#N)nc12` (stereo partly drawn) [Example 193, 4-((2 S,5R)-4-(1-(6-cyclopropylpyridin-3-yl)ethyl)-2,5-diethylpiperazin-1-yl)-1-methyl-2-oxo-1,2-dihydropyrido[3,2-d]pyrimidine-6-carbonitrile], the EC50 in test [1] (setting [5]) came out at 1150 nM. Moreover, the values for the IC50 on human DGKα (setting [6]) and on human DGKζ (setting [7]) were 650 nM and 1770 nM, respectively.
